Measured values published in patent US20070203091A1, “Methods and therapeutic compositions for improving liver, blood flow and skeletal muscle functions in advanced diseases and aging” (priority 2006, published 2007).

Key:
[1] = ATP pharmacokinetics: blood plasma (extracellular) ATP levels, Phase I study; format: in vivo, human; settings: for Initial Extracellular ATP Concentration, Median: ITT
Method: (§1) The solution was administered by continuous intravenous infusions using an Ivac or similar infusion device through venous access in a peripheral vein. If venous access was a problem, either a Hickman catheter or its equivalent, or an Infusaport or its equivalent was inserted to provide vascular access.
(§2) The 50 μg/kg/min dose could be reduced to 25 μg/kg/min if adverse effects occurred. […] Succeeding infusions in that patient were at the infusion dose tolerated at the end of the previous treatment. If adverse events occurred in patients being infused at 25 μg/kg/min, the infusions were terminated and the patient received no additional infusions.

[2] = ATP pharmacokinetics: total blood (red blood cell) ATP level, Phase I study, 8 hour intravenous infusion; format: in vivo, human
Method: as §1, §2

[3] = ATP continuously for eight hours
[4] = Week 1 (infusion 1), 4 hours into infusion
[5] = Week 1 (infusion 1), 8 hours (before the end)
[6] = Week 1 (infusion 1), 8.25 hours
[7] = Week 1 (infusion 1), Time 0 (pre-infusion)
[8] = Week 3 (Infusion 3), 4 hours into infusion
[9] = Week 3 (Infusion 3), 8 hours before the end
[10] = Week 3 (Infusion 3), Time 0 (pre-infusion)
[11] = Week 8 (infusion 8), 4 hours into infusion
[12] = Week 8 (infusion 8), 8 hours (before the end)
[13] = Week 8 (infusion 8), Time 0 (pre-infusion)

Nc1ncnc2c1ncn2[C@@H]1O[C@H](COP(=O)(O)OP(=O)(O)OP(=O)(O)O)[C@@H](O)[C@H]1O [ATP, adenosine 5′-triphosphate]
blood plasma (extracellular) ATP levels [1, 3]: increases | Initial Extracellular ATP Concentration, Median ([1]; Week 1 (Infusion 1), 4 hours into infusion, N=13): 0.109 µM | Initial Extracellular ATP Concentration, Median ([1]; Week 1 (Infusion 1), 8.25 hours, N=1): 0.141 µM | Initial Extracellular ATP Concentration, Median ([1]; Week 1 (Infusion 1), 9 hours, N=10): 0.150 µM | Initial Extracellular ATP Concentration, Median ([1]; Week 1 (Infusion 1), 10 hours, N=12): 0.091 µM | Initial Extracellular ATP Concentration, Median ([1]; Week 1 (Infusion 1), 11 hours, N=12): 0.062 µM | Initial Extracellular ATP Concentration, Median ([1]; Week 1 (Infusion 1), 12 hours, N=11): 0.044 µM | Initial Extracellular ATP Concentration, Median ([1]; Week 1 (Infusion 1), 14 hours, N=8): 0.029 µM | Initial Extracellular ATP Concentration, Median ([1]; Week 1 (Infusion 1), 16 hours, N=10): 0.050 µM | Initial Extracellular ATP Concentration, Median ([1]; Week 1 (Infusion 1), 20 hours, N=8): 0.052 µM | Initial Extracellular ATP Concentration, Median ([1]; Week 1 (Infusion 1), 24 hours, N=12): 0.079 µM | Initial Extracellular ATP Concentration, Median ([1]; Week 1 (Infusion 1), […], N=10): 0.238 µM | Initial Extracellular ATP Concentration, Median ([1]; Week 3 (Infusion 3), 4 hours into infusion, N=9): 0.200 µM | Initial Extracellular ATP Concentration, Median ([1]; Week 3 (Infusion 3), 8 hours (before the end), N=9): 0.240 µM | Initial Extracellular ATP Concentration, Median ([1]; Week 3 (Infusion 3), 8.25 hours, N=1): 0.055 µM | Initial Extracellular ATP Concentration, Median ([1]; Week 3 (Infusion 3), 9 hours, N=9): 0.170 µM | Initial Extracellular ATP Concentration, Median ([1]; Week 3 (Infusion 3), 10 hours, N=9): 0.060 µM | Initial Extracellular ATP Concentration, Median ([1]; Week 3 (Infusion 3), 11 hours, N=10): 0.060 µM | Initial Extracellular ATP Concentration, Median ([1]; Week 3 (Infusion 3), 12 hours, N=8): 0.065 µM | Initial Extracellular ATP Concentration, Median ([1]; Week 3 (Infusion 3), 14 hours, N=6): 0.032 µM | Initial Extracellular ATP Concentration, Median ([1]; Week 3 (Infusion 3), 16 hours, N=5): 0.040 µM | Initial Extracellular ATP Concentration, Median ([1]; Week 3 (Infusion 3), 20 hours, N=5): 0.070 µM | Initial Extracellular ATP Concentration, Median ([1]; Week 3 (Infusion 3), 24 hours, N=8): 0.044 µM | Initial Extracellular ATP Concentration, Median ([1]; Week 3 (Infusion 3), Time ‘0’ (pre-infusion), N=10): 0.055 µM | Initial Extracellular ATP Concentration, Median ([1]; Week 3 (Infusion 3), […], N=9): 0.200 µM | Initial Extracellular ATP Concentration, Median ([1]; Week 8 (infusion 8), 4 hours into infusion, N=3): 0.390 µM | Initial Extracellular ATP Concentration, Median ([1]; Week 8 (infusion 8), Time ‘0’ (pre-infusion), N=3): 0.080 µM | total blood (red blood cell) ATP levels [2, 3]: increases | ATP Level Mean [2, 4]: 0.808 mM | ATP Level Median [2, 4]: 0.745 mM | ATP Level Mean [2, 5]: 0.896 mM | ATP Level Median [2, 5]: 0.770 mM | ATP Level Mean [2, 6]: 0.860 mM | ATP Level Median [2, 6]: 0.860 mM | ATP Level Mean ([2]; Week 1 (infusion 1), 9 hours): 0.912 mM | ATP Level Median ([2]; Week 1 (infusion 1), 9 hours): 0.765 mM | ATP Level Mean ([2]; Week 1 (infusion 1), 10 hours): 0.826 mM | ATP Level Median ([2]; Week 1 (infusion 1), 10 hours): 0.735 mM | ATP Level Mean ([2]; Week 1 (infusion 1), 11 hours): 0.828 mM | ATP Level Median ([2]; Week 1 (infusion 1), 11 hours): 0.680 mM | ATP Level Mean ([2]; Week 1 (infusion 1), 12 hours): 0.845 mM | ATP Level Median ([2]; Week 1 (infusion 1), 12 hours): 0.690 mM | ATP Level Mean ([2]; Week 1 (infusion 1), 14 hours): 0.857 mM | ATP Level Median ([2]; Week 1 (infusion 1), 14 hours): 0.730 mM | ATP Level Mean ([2]; Week 1 (infusion 1), 16 hours): 0.905 mM | ATP Level Median ([2]; Week 1 (infusion 1), 16 hours): 0.755 mM | ATP Level Mean ([2]; Week 1 (infusion 1), 20 hours): 0.772 mM | ATP Level Median ([2]; Week 1 (infusion 1), 20 hours): 0.670 mM | ATP Level Mean ([2]; Week 1 (infusion 1), 24 hours): 0.715 mM | ATP Level Median ([2]; Week 1 (infusion 1), 24 hours): 0.620 mM | ATP Level Mean [2, 7]: 0.615 mM | ATP Level Median [2, 7]: 0.550 mM | ATP Level Mean ([2]; Week 1 (infusion 1), […]): 0.895 mM | ATP Level Median ([2]; Week 1 (infusion 1), […]): 0.810 mM | ATP Level Mean [2, 8]: 0.843 mM | ATP Level Median [2, 8]: 0.540 mM | ATP Level Mean [2, 9]: 0.955 mM | ATP Level Median [2, 9]: 0.770 mM | ATP Level Mean ([2]; Week 3 (Infusion 3), 9 hours): 0.908 mM | ATP Level Median ([2]; Week 3 (Infusion 3), 9 hours): 0.950 mM | ATP Level Mean ([2]; Week 3 (Infusion 3), 10 hours): 0.906 mM | ATP Level Median ([2]; Week 3 (Infusion 3), 10 hours): 1.000 mM | ATP Level Mean ([2]; Week 3 (Infusion 3), 11 hours): 0.885 mM | ATP Level Median ([2]; Week 3 (Infusion 3), 11 hours): 0.670 mM | ATP Level Mean ([2]; Week 3 (Infusion 3), 12 hours): 0.903 mM | ATP Level Median ([2]; Week 3 (Infusion 3), 12 hours): 0.820 mM | ATP Level Mean ([2]; Week 3 (Infusion 3), 14 hours): 0.853 mM | ATP Level Median ([2]; Week 3 (Infusion 3), 14 hours): 0.600 mM | ATP Level Mean ([2]; Week 3 (Infusion 3), 16 hours): 0.859 mM | ATP Level Median ([2]; Week 3 (Infusion 3), 16 hours): 0.740 mM | ATP Level Mean ([2]; Week 3 (Infusion 3), 20 hours): 0.851 mM | ATP Level Median ([2]; Week 3 (Infusion 3), 20 hours): 0.610 mM | ATP Level Mean ([2]; Week 3 (Infusion 3), 24 hours): 0.687 mM | ATP Level Median ([2]; Week 3 (Infusion 3), 24 hours): 0.580 mM | ATP Level Mean [2, 10]: 0.610 mM | ATP Level Median [2, 10]: 0.560 mM | ATP Level Mean ([2]; Week 3 (Infusion 3), […]): 0.989 mM | ATP Level Median ([2]; Week 3 (Infusion 3), […]): 0.960 mM | ATP Level Mean [2, 11]: 0.702 mM | ATP Level Median [2, 11]: 0.770 mM | ATP Level Mean [2, 12]: 0.826 mM | ATP Level Median [2, 12]: 0.890 mM | ATP Level Mean ([2]; Week 8 (infusion 8), 9 hours): 1.030 mM | ATP Level Median ([2]; Week 8 (infusion 8), 9 hours): 1.155 mM | ATP Level Mean ([2]; Week 8 (infusion 8), 10 hours): 0.963 mM | ATP Level Median ([2]; Week 8 (infusion 8), 10 hours): 1.080 mM | ATP Level Mean ([2]; Week 8 (infusion 8), 11 hours): 0.973 mM | ATP Level Median ([2]; Week 8 (infusion 8), 11 hours): 1.010 mM | ATP Level Mean ([2]; Week 8 (infusion 8), 12 hours): 0.925 mM | ATP Level Median ([2]; Week 8 (infusion 8), 12 hours): 1.050 mM | ATP Level Mean ([2]; Week 8 (infusion 8), 14 hours): 0.980 mM | ATP Level Median ([2]; Week 8 (infusion 8), 14 hours): 0.950 mM | ATP Level Mean ([2]; Week 8 (infusion 8), 16 hours): 0.894 mM | ATP Level Median ([2]; Week 8 (infusion 8), 16 hours): 0.700 mM | ATP Level Mean ([2]; Week 8 (infusion 8), 20 hours): 0.960 mM | ATP Level Median ([2]; Week 8 (infusion 8), 20 hours): 0.900 mM | ATP Level Mean ([2]; Week 8 (infusion 8), 24 hours): 0.708 mM | ATP Level Median ([2]; Week 8 (infusion 8), 24 hours): 0.750 mM | ATP Level Mean [2, 13]: 0.573 mM | ATP Level Median [2, 13]: 0.560 mM | ATP Level Mean ([2]; Week 8 (infusion 8), […]): 1.000 mM | ATP Level Median ([2]; Week 8 (infusion 8), […]): 0.980 mM | Increases in total blood ATP pools ([2]; patients 502-505, weeks 1, 3 and 8, time 0 to 8 hours (end of the infusions)): 70-90%
